Results reported in ChEMBL document CHEMBL3832545, “DailyMed|setid=29481887-34eb-460a-bd7f-b8755473065a | EXELON - rivastigmine patch, extended release|Physicians Total Care, Inc”.

Key:
Format in all cases: ADME, organism-based
Homo sapiens [1] = test: (§1) Evaluation of the pharmacokinetic parameters for Rivastigmine 0.5 to 1 hour after administration of 9.5 mg/24 hours Rivastigmine transdermal system (Exelon patch).; conditions: in vivo, topical_or_ocular, dosed compound id 5, dosed compound name RIVASTIGMINE, regimen Single dose, sampling time1 0.5-1 hr, study dosing duration 24 hr
[2] = as §1; conditions: human, in vivo, topical or ocular, dosed compound id 5, dosed compound name RIVASTIGMINE, regimen Single dose, sampling time1 0.5-1 hr, study dosing duration 24 hr, tissue Plasma
Homo sapiens [3] = test: Evaluation of the pharmacokinetic parameters for Rivastigmine following multiple oral administration of 6 mg Rivastigmine tablets.; conditions: in vivo, dosed compound id 5, dosed compound name RIVASTIGMINE, regimen Twice daily, tissue Plasma

CCN(C)C(=O)Oc1cccc([C@H](C)N(C)C)c1 [RIVASTIGMINE]
Tmax (Homo sapiens [1]; tissue Cerebrospinal Fluid (CSF)): 1.4 to 2.6 h | Tmax (Homo sapiens [1]; tissue Plasma): 8 h | Vd (Homo sapiens [1]; tissue Plasma): 1.8 to 2.7 L/kg | CL renal ([2]; 9.5 mg/24 hours): 35 to 46.7 mL/min | fraction unbound ([2]; at 9.5 mg, read-out: Protein binding (converted)): 0.6 | Ratio AUC(inf) (Homo sapiens [3]): 3.5
